These results are taken from paper PMC11851430, “Workflow for E3 Ligase Ligand Validation for PROTAC Development” (ACS Chemical Biology, 2025).

One assay has as its target T1, ABL1 (Homo sapiens, UniProt P00519).
T1 construct: endogenous in cells; host or cells: Jurkat (Clone E6.1) cell lysate
Nature of the assay: Kinobeads selectivity profiling. The class given is binding. The following applies: Jurkat lysate, dose series given in nM, read-out: Kd (apparent dissociation constant, corrected for protein depletion). The procedure: Excitation and emission filters […]
curve. […] Measurements were
Kinobeads selectivity profiling of PROTACs
(Multiplexion, Heidelberg, Germany).
The cell lysate was ultracentrifuged and diluted
NaF, 1 mM DTT, protease inhibitors and phosphatase inhibitors to a final concentration of 5 mg/ml as determined by Bradford assay. For selectivity profiling of compounds the cell lysate (2.5 mg of total proteins per pulldown) was pre-incubated with increasing compound […]
µM) for 45 min at 4 °C in an end-over-end shaker. Subsequently, lysates were incubated with Kinobeads epsilon (17 µL settled beads) for 30 min at 4 °C. To assess the degree of protein depletion from the lysates by Kinobeads, the flow-through of the DMSO control was recovered […]
for a pulldown of pulldown experiment where the lysate was incubated a second time with fresh Kinobeads. Beads were washed in 3 steps with buffer containing 0.4%, 0.2% and no NP40.
Bound proteins were reduced with 50 mM DTT in 8 M Urea, 40 mM Tris-HCl pH 7.4 for 30 min at room temperature. After alkylation with 55 mM chloroacetamide (CAA), the Urea concentration was reduced to 1 – 2 M and proteins were digested using trypsin. Acidified peptides were desalted and concentrated using SepPak tC18 µEluation plates (Waters).
Samples were frozen, dried by vacuum centrifugation and stored at -20 °C.
LC-MS2 analysis. Peptides were measured on a Dionex Ultimate3000 nano HPLC coupled online to an Orbitrap Fusion Lumos (Thermo Fisher Scientific) mass spectrometer.
Peptides were dissolved in 0.1% formic acid and delivered to a trap column (ReproSil-pur C18-AQ, 5 μm, Dr. Maisch, 20 mm × 75 μm, self-packed) at a flow rate of 5 μL/min in LC solvent A (0.1 % formic acid).4 After 10 min of loading, peptides were transferred to an analytical column (ReproSil Gold C18-AQ, 3 μm, Dr. Maisch, 400 mm × 75 μm, self-packed) and separated using […]
acetonitrile) in LC solvent A.
The Orbitrap Fusion Lumos was operated as follows: positive polarity; spray voltage 2.1 kV, […]
A full-scan (MS1) was recorded from 360 to 1300 m/z with a resolution of 60,000 in the Orbitrap in profile mode. The MS1 AGC target was set to 4e5 and the maxIT was set to 50 ms, RF lens value was set to 50%. Based on the full scans, precursors were targeted for the MS/MS scans […]
intensity exceeded 2.5e4. The dynamic exclusion was set to 30 sec and exclude isotopes was switched on. The MS2 quadrupole isolation window was set to 1.7 m/z. Peptide fragmentation occurred in the ion routing multipole (IRM) by HCD with a fixed collision energy mode, the […]

Assay [1] deals with T2, kinase protein levels in MCF-7 cells (Homo sapiens, UniProt A0A024RBG1).
T2 construct: endogenous in cells; host or cells: MCF-7
T2 sequence (A0A024RBG1 whole entry): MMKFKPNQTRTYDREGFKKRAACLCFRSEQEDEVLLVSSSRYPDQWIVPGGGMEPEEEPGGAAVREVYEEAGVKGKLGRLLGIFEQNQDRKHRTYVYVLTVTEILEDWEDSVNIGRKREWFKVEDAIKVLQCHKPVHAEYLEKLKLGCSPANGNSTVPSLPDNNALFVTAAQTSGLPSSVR
Nature of the assay: TMT-labeled quantitative proteomics. The class given is cell-based. The following applies: protein NUDT4B; MCF7; 1 µM; set2.

The structures appear in SMILES notation.

T1 sequence (P00519 whole entry): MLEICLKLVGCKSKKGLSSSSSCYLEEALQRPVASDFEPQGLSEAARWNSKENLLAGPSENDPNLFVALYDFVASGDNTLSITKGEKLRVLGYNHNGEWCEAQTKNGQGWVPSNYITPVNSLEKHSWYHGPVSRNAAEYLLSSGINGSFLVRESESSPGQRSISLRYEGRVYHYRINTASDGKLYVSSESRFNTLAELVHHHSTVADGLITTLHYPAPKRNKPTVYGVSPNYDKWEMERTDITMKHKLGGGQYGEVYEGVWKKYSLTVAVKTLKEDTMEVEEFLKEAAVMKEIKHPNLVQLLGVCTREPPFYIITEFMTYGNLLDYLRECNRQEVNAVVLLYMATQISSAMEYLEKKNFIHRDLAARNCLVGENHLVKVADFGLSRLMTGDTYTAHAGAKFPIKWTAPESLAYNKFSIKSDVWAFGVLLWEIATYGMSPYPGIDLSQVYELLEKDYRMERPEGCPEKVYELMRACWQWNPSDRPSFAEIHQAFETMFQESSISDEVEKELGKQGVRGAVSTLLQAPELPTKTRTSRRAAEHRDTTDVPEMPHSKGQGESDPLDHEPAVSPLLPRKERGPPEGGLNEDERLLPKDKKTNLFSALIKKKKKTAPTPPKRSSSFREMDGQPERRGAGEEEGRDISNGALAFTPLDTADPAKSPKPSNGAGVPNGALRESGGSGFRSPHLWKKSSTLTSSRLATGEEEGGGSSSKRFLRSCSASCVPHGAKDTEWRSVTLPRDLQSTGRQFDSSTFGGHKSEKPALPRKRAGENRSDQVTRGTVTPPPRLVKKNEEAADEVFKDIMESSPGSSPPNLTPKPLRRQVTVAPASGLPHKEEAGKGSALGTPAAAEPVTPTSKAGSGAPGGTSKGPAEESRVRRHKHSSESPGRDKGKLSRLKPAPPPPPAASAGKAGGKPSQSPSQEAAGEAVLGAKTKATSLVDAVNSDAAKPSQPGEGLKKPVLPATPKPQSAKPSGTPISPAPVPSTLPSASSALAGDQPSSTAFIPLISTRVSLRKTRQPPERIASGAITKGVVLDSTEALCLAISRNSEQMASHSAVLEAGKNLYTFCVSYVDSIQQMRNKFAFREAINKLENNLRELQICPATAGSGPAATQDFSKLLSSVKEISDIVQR

Consider `CC(C)(C)OC(=O)NCCCOCCOCCOCCCNC(=O)c1cc(Nc2cc(C3CC3)[nH]n2)nc(Nc2ccc(CC#N)cc2)n1` [5-L], for which the Kd on ABL1 came out at 4950 nM. With `CC(=O)N[C@H](C(=O)N1C[C@H](O)C[C@H]1C(=O)NCc1ccc(-c2scnc2C)cc1OCCOCCOCCOCCOCCC(=O)N1CCN(c2ccc(Nc3ncc(Cl)c(Nc4ccccc4C(N)=O)n3)cc2)CC1)C(C)(C)C` [6-e], in assay [1], the “P.Value (compound/DMSO)” value is listed as 0.2879 and the “log2FC (compound/DMSO)” value was 0.1111. For `CC(=O)N[C@H](C(=O)N1C[C@H](O)C[C@H]1C(=O)NCc1ccc(-c2scnc2C)cc1OCCOCCOCCOCCNC(=O)c1cc(Nc2cc(C3CC3)[nH]n2)nc(Nc2ccc(CC#N)cc2)n1)C(C)(C)C` [5-b], in that order: 0.01265 and -0.4511. For `CC(C)(C)OC(=O)NCCOCCOCCOCCOCCC(=O)N1CCN(c2cc(Nc3cc(C4CC4)[nH]n3)nc(Nc3ccc(CC#N)cc3)n2)CC1` [4-L], the Kd on ABL1 was 2200 nM.
